From patent US11203577B2, “Sulfonyl-structure-containing triazinone derivatives, their preparation methods and their uses in insect killing and/or bacterium killing” (Nankai University, priority 2017, dated 2021) come the findings set out here.

The structures appear in SMILES notation. Read-outs that look alike come from different tables or passages of the source.

Data set [1] concerns Cucumber fusarium wilt. As to the kind of experiment: In vitro fungicidal activity, PDA colony diameter. Particulars: 96 h, 50 mg/kg, inhibition of colony diameter, read-out: Fungicidal activity (%) Cucumber fusarium wilt. Type of data set: cell-based.
The test system of data set [2] is Cercospora brown spot of peanut. As to the kind of experiment: In vitro fungicidal activity, PDA colony diameter. As to conditions: 96 h, 50 mg/kg, inhibition of colony diameter, read-out: Fungicidal activity (%) Cercospora brown spot of peanut. In kind it is cell-based.
Data set [3] relates to Tomato early blight. Put plainly: In vitro fungicidal activity, PDA colony diameter. In kind it is cell-based, Alternaria solani. As to conditions: read-out: Fungicidal activity (%) Tomato early blight.
Data set [4] relates to Wheat head blight. Put plainly: whole plant or invertebrate. Type of data set: cell-based. Particulars: Triticum aestivum, read-out: Fungicidal activity (%) Wheat head blight.
Data set [5] has as its system Rice bakanae disease. Put plainly: In vitro fungicidal activity, PDA colony diameter. Type of data set: cell-based. As to conditions: read-out: Fungicidal activity (%) Rice bakanae disease.
Data set [6] has as its system Sclerotinia rot of colza. Put plainly: In vitro fungicidal activity, PDA colony diameter. Type of data set: cell-based. As to conditions: 96 h, 50 mg/kg, inhibition of colony diameter, read-out: Fungicidal activity (%) Sclerotinia rot of colza.
Data set [7] deals with Apple ring rot. Put plainly: In vitro fungicidal activity, PDA colony diameter. In kind it is cell-based. As to conditions: inhibition of colony diameter. In short, it runs like this: (§1)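 Mycelial plugs cut from the edge of 7-day PDA colonies placed on PDA containing 50 mg/kg compound or on compound-free PDA, grown 4 days. Colony diameters measured; percent inhibition calculated against untreated control.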

Data set [8] concerns Capsicum phytophthora blight. Put plainly: In vitro fungicidal activity, PDA colony diameter. Type of data set: cell-based. As to conditions: 96 h. In short, it runs like this: as §1
Data set [9] has as its system Wheat sheath blight. As to the kind of experiment: In vitro fungicidal activity, PDA colony diameter. In kind it is cell-based. As to conditions: 50 mg/kg, inhibition of colony diameter; read-out: Fungicidal activity (%) Wheat sheath blight.
The test system of data set [10] is Corn southern leaf blight. As to the kind of experiment: In vitro fungicidal activity, PDA colony diameter. Type of data set: cell-based. As to conditions: 50 mg/kg, inhibition of colony diameter; read-out: Fungicidal activity (%) Corn southern leaf blight.
For data set [11], the system named is Watermelon anthracnose. Put plainly: In vitro fungicidal activity, PDA colony diameter. Type of data set: cell-based. Particulars: 50 mg/kg, inhibition of colony diameter; read-out: Fungicidal activity (%) Watermelon anthracnose.
In data set [12] the test system is Potato late blight. As to the kind of experiment: microbe, parasite or virus in culture. In kind it is cell-based. Particulars: Phytophthora infestans, 96 h, read-out: Fungicidal activity (%) Potato late blight.
Data set [13] relates to Rice sheath blight. As to the kind of experiment: In vitro fungicidal activity, PDA colony diameter. In kind it is cell-based. Particulars: 50 mg/kg, inhibition of colony diameter; read-out: Fungicidal activity (%) Rice sheath blight.
In data set [14] the test system is Armyworms. Put plainly: Test of insecticidal activity against armyworms (leaf immersion). As to conditions: 600 mg/kg, 3-4 days.
In data set [15] the test system is Maize borers. As to the kind of experiment: Test of insecticidal activity against maize borers (leaf immersion). As to conditions: read-out: Mortalities (%) Maize borers.
The test system of data set [16] is mosquito larvae (Culer pipiens pallens). As to the kind of experiment: Test of insecticidal activity against mosquito larvae (checked after 24 h). As to conditions: 24 h, read-out: Mortalities (%) against mosquito larvae.
Data set [17] has as its system bean aphides (Aphis laburni Kaltenbach). As to the kind of experiment: Test of insecticidal activity against aphides (leaf immersion, checked after 96 h). As to conditions: Aphis, 96 h, read-out: Mortalities (%) against aphides.
The subject of data set [18] is Cotton bollworms. Put plainly: Test of insecticidal activity against cotton bollworms (pesticide mixed into feedstuff). Particulars: read-out: Mortalities (%) Cotton bollworms.
Protocol: Method of testing against cotton bollworms: the pesticide is mixed into the feedstuff, i.e., 3 mL prepared solution is added into about 27 g freshly prepared feedstuff; thus, required concentration is obtained by diluting by 10 times.
Where [19] appears, read: 50 mg/kg, inhibition of colony diameter.

In the case of `CC1=NNC(=O)N(N(S(=O)(=O)c2ccc(C)cc2)S(=O)(=O)c2ccc(C)cc2)C1` [Ib-6, 4-methyl-N-(6-methyl-3-oxo-2,3-dihydro-1,2,4-triazin-4(5H)-yl)-N-(4-methylbenzenesulfonyl)benzenesulfonamide], the inhibition of growth at 50 mg/kg in data set [1] is 0%; in [2], 15.8%; in data set [6], 15%; in [8], 26.5%; in [12] it was 22.2%. The inhibition at 50 mg/kg in [3] (setting [19]) was found to be 23.8%; in data set [4], 13.3%; in data set [5] it was 22.2%; in data set [7], 27.6%; in data set [9], 56.8%; in data set [10], 16.7%. In addition, the inhibition at 50 mg/kg was found to be 29.2% in [11] and 50.8% in data set [13]. The “Mortalities (%) Armyworms” value in [14] is listed as 15%. Besides, the mortality at 600 mg/kg stood at 15% in data set [15], 100% in data set [17] and 15% in data set [18]. Moreover, the mortality at 10 mg/kg in [16] was 35%; in [17], 30%. The mortality at 100 mg/kg in data set [17] was found to be 80%.

For `CC1=NNC(=O)N(NS(=O)(=O)c2ccc(F)c(F)c2F)C1` [Ia-20, 2,3,4-trifluoro-N-(6-methyl-3-oxo-2,3-dihydro-1,2,4-triazin-4(5H)-yl)-benzenesulfonamide], the inhibition of growth at 50 mg/kg came to 0% in [1]; 12% in data set [2]; 15.8% in [6]; 0% in data set [8]; 18.7% in data set [12]. Moreover, the inhibition at 50 mg/kg worked out at 16.4% in [3] (setting [19]); 5.4% in data set [4]; 10.3% in data set [5] (setting [19]); 4.1% in data set [7]; 17.4% in data set [9]; 3.1% in [10]. For the same compound, the inhibition at 50 mg/kg in data set [11] worked out at 13.1%; in data set [13], 9.3%. Besides, the “Mortalities (%) Armyworms” value in data set [14] was found to be 65%. Also, the results for the mortality at 600 mg/kg in [15], in data set [17] and in [18] were 50%, 100% and 20%, respectively. The mortality at 2 mg/kg in [16] amounted to 20%. For the same compound, the mortality at 5 mg/kg was 100% in data set [16] and 10% in data set [17]. Also, the mortality at 10 mg/kg in [16] turned out to be 100%; in [17], 70%. Besides, the mortality at 100 mg/kg in data set [17] worked out at 100%.

Consider `CC1=NNC(=O)N(NS(=O)(=O)Cc2ccccc2)C1` [Ia-7, N-(6-methyl-3-oxo-2,3-dihydro-1,2,4-triazin-4(5H)-yl)-phenylmethylsulfonamide], for which the inhibition of growth at 50 mg/kg in [1] stood at 0%; in data set [2] it was 15.8%; in data set [6], 31.7%; in data set [8], 36.7%; in data set [12], 33.3%. Also, the inhibition at 50 mg/kg in data set [3] stood at 33.3%; in [4] it was 30%; in data set [5] (setting [19]), 38.9%; in data set [7], 41.4%; in data set [9], 63.6%; in data set [10], 20.8%. In addition, the figures for the inhibition at 50 mg/kg in data set [11] and in data set [13] were 20.8% and 30.2%, respectively. The “Mortalities (%) Armyworms” value in data set [14] turned out to be 0%. Besides, the mortality at 600 mg/kg in data set [15] amounted to 0%; in data set [17] it was 100%; in data set [18] it was 35%. Further, the mortality at 10 mg/kg in data set [16] worked out at 70%; in data set [17], 20%. Also, the mortality at 100 mg/kg in data set [17] turned out to be 75%.
